Assay results from ChEMBL document CHEMBL4507289, “Data for DCP probe GSM1” (2021).
Active and inactive are the calls of the source. No cut-off for these calls is given here.

Key:
[1] = target: Sodium-dependent noradrenaline transporter (Homo sapiens, UniProt P23975); assay: GPCRScan assay: inhibition of NET; set-up: radioligand conc. used [nm] 1.3 – 5.0, parental cells stable HEK
[2] = target: T1, Sodium-dependent dopamine transporter (Homo sapiens, UniProt Q01959); assay: GPCRScan assay: inhibition of DAT; set-up: radioligand conc. used [nm] 3.6 – 16.0, parental cells stable HEK
Histamine H2 receptor = Histamine H2 receptor (Homo sapiens, UniProt P25021); assay: GPCRScan assay: inhibition of H2; set-up: radioligand conc. used [nm] 0.02 – 0.05, parental cells Stable HEK
[3] = target: T1, Sodium-dependent dopamine transporter; assay: Dopamine-uptake assay
[4] = target: Sodium-dependent serotonin transporter (Homo sapiens, UniProt P31645); assay: Serotonin-uptake assay
[5] = system: Tyrosine-protein kinase ABL1 (Homo sapiens), P00519 [T315I]; settings: Compound concentration 1000.0 nM
[6] = target: BMP-2-inducible protein kinase (Homo sapiens) (UniProt Q9NSY1); settings: Compound concentration 1000.0 nM
[7] = target: Cyclin-dependent kinase-like 3 (Homo sapiens) (UniProt Q8IVW4); settings: Compound concentration 1000.0 nM
[8] = target: Dual specificity protein kinase CLK3 (Homo sapiens) (UniProt P49761); settings: Compound concentration 1000.0 nM
[9] = target: Death-associated protein kinase 1 (Homo sapiens) (UniProt P53355); settings: Compound concentration 1000.0 nM
[10] = target: Mitogen-activated protein kinase 7 (Homo sapiens) (UniProt Q13164); settings: Compound concentration 1000.0 nM
[11] = target: Inhibitor of nuclear factor kappa-B kinase subunit epsilon (Homo sapiens) (UniProt Q14164); settings: Compound concentration 1000.0 nM
[12] = target: Serine/threonine-protein kinase LATS1 (Homo sapiens) (UniProt O95835); settings: Compound concentration 1000.0 nM
[13] = target: Dual specificity mitogen-activated protein kinase kinase 1 (Homo sapiens) (UniProt Q02750); settings: Compound concentration 1000.0 nM
[14] = system: Hepatocyte growth factor receptor (Homo sapiens), P08581 [Y1235D]; settings: Compound concentration 1000.0 nM
[15] = target: Serine/threonine-protein kinase D1 (Homo sapiens) (UniProt Q15139); settings: Compound concentration 1000.0 nM
[16] = target: Proto-oncogene tyrosine-protein kinase ROS (Homo sapiens) (UniProt P08922); settings: Compound concentration 1000.0 nM
[17] = target: Ribosomal protein S6 kinase alpha-1 (Homo sapiens) (UniProt Q15418); settings: Compound concentration 1000.0 nM
[18] = target: Dual specificity testis-specific protein kinase 1 (Homo sapiens) (UniProt Q15569); settings: Compound concentration 1000.0 nM
[19] = target: Angiopoietin-1 receptor (Homo sapiens) (UniProt Q02763); settings: Compound concentration 1000.0 nM
[20] = target: 5-hydroxytryptamine receptor 1E (Homo sapiens) (UniProt P28566); settings: Compound concentration 10.0 uM
[21] = target: Alpha-1A adrenergic receptor (Homo sapiens) (UniProt P35348); settings: Compound concentration 10.0 uM
[22] = target: Alpha-1B adrenergic receptor (Homo sapiens) (UniProt P35368); settings: Compound concentration 10.0 uM
[23] = target: Beta-2 adrenergic receptor (Homo sapiens) (UniProt P07550); settings: Compound concentration 10.0 uM
[24] = target: Muscarinic acetylcholine receptor M1 (Homo sapiens) (UniProt P11229); settings: Compound concentration 10.0 uM
[25] = target: Muscarinic acetylcholine receptor M2 (Homo sapiens) (UniProt P08172); settings: Compound concentration 10.0 uM
[26] = target: Beta-3 adrenergic receptor (Homo sapiens) (UniProt P13945); settings: Compound concentration 10.0 uM
[27] = target: Alpha-1D adrenergic receptor (Homo sapiens) (UniProt P25100); settings: Compound concentration 10.0 uM
D(4) dopamine receptor = D(4) dopamine receptor (Homo sapiens, UniProt P21917); assay: GPCRScan assay: inhibition of D4; set-up: radioligand conc. used [nm] 0.6 – 1.7, parental cells Stable HEK
[28] = target: Alpha-1A adrenergic receptor (Homo sapiens, UniProt P35348); assay: GPCRScan assay: inhibition of Alpha1A; set-up: radioligand conc. used [nm] 0.2 - 1.0, parental cells stable HEK
[29] = target: Alpha-1B adrenergic receptor (Homo sapiens, UniProt P35368); assay: GPCRScan assay: inhibition of Alpha1B; set-up: radioligand conc. used [nm] 0.3 – 1.0, parental cells stable HEK
[30] = GPCRScan assay: inhibition of GABA/PBR; set-up: species or system Rattus norvegicus; radioligand conc. used [nm] 0.3 – 2.0, parental cells brain tissue
[31] = target: 5-hydroxytryptamine receptor 1D (Homo sapiens) (UniProt P28221); settings: Compound concentration 10.0 uM

T1 sequence (Q01959 whole entry): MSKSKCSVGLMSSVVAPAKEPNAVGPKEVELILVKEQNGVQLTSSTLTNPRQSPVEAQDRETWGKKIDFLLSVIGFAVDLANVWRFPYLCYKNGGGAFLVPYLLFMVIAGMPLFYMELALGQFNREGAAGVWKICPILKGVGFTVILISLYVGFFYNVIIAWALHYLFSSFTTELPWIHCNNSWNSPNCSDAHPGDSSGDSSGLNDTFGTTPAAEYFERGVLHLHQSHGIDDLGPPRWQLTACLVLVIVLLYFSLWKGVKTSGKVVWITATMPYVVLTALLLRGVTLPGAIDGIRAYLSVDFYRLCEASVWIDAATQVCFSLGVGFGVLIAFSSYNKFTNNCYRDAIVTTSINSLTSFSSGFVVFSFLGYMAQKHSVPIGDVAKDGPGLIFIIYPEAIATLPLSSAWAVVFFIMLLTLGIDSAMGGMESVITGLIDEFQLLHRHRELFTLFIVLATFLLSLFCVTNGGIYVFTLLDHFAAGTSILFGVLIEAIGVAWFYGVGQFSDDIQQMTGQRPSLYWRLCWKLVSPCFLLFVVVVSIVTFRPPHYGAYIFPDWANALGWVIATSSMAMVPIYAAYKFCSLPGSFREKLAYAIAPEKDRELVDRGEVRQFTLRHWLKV
Chain of Serine/threonine-protein kinase LATS1 (Homo sapiens) (O95835 whole entry): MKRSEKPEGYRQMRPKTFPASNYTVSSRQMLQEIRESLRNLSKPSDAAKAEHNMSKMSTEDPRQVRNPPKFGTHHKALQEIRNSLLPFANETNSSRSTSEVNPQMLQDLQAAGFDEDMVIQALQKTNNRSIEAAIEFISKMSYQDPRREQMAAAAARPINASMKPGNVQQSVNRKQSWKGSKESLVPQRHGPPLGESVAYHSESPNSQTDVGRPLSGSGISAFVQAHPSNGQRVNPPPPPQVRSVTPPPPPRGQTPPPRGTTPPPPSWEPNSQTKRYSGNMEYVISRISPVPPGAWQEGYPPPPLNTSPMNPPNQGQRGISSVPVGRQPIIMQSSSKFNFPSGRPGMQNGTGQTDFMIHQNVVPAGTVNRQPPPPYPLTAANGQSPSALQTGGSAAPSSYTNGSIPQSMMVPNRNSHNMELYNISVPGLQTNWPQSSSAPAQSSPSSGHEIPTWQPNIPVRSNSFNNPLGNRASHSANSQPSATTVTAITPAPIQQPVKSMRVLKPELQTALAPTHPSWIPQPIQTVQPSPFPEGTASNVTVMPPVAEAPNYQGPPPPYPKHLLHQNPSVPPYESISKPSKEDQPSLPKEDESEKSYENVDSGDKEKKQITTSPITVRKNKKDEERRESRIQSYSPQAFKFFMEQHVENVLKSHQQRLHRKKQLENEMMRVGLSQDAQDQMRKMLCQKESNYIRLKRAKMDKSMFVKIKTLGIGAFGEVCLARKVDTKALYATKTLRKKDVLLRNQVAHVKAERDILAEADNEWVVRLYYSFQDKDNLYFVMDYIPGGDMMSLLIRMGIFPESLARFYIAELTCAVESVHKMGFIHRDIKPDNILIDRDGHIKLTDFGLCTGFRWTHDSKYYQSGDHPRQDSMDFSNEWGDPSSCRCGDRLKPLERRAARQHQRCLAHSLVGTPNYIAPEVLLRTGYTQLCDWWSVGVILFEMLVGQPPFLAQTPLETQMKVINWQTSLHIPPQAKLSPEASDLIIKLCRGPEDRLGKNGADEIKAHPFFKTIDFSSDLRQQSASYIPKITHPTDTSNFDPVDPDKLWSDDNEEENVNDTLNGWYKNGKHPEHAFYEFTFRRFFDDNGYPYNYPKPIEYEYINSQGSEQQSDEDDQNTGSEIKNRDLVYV
Chain of Ribosomal protein S6 kinase alpha-1 (Homo sapiens) (Q15418 whole entry): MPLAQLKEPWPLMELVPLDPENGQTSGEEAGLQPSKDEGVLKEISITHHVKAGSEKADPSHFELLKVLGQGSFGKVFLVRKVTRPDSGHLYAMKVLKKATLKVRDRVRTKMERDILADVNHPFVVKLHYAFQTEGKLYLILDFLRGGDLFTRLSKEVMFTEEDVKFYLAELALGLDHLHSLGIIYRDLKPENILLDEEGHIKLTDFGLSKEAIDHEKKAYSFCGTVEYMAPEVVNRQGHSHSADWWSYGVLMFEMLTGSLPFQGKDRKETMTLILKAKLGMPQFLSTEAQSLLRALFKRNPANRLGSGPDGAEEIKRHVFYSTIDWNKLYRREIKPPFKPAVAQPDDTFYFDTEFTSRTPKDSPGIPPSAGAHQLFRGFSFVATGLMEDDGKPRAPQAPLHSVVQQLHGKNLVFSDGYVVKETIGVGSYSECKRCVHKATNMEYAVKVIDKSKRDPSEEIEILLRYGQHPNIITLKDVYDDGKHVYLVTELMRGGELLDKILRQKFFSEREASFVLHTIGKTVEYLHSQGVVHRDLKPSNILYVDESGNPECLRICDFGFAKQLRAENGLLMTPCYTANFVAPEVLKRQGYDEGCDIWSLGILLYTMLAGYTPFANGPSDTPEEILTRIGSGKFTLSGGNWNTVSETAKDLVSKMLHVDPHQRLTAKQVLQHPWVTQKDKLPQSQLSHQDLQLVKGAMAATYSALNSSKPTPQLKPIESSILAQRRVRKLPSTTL
Chain of Serine/threonine-protein kinase D1 (Homo sapiens) (Q15139 whole entry): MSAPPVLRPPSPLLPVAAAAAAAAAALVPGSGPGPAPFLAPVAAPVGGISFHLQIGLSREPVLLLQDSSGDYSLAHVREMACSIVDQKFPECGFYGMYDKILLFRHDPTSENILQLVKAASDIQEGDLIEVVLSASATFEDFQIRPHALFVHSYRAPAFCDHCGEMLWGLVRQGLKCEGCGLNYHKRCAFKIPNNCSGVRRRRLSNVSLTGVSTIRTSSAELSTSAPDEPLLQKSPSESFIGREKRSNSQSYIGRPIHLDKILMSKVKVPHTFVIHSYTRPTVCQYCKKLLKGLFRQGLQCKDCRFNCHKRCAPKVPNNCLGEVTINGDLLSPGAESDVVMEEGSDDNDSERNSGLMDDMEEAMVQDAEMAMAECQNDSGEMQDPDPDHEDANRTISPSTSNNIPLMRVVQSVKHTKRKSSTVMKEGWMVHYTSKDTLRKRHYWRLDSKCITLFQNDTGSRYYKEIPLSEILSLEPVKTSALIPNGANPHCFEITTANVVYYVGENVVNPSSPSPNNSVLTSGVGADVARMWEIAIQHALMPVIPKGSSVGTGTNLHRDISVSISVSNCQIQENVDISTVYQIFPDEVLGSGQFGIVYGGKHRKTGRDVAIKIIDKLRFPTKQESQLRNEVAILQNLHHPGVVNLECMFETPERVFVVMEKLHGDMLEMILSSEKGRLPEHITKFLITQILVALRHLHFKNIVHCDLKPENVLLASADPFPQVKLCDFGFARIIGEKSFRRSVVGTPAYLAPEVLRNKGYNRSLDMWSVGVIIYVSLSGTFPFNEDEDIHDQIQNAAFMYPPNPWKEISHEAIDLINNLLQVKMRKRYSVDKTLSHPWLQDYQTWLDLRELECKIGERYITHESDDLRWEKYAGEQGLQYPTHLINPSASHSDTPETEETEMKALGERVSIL
Chain of BMP-2-inducible protein kinase (Homo sapiens) (Q9NSY1 whole entry, looked up): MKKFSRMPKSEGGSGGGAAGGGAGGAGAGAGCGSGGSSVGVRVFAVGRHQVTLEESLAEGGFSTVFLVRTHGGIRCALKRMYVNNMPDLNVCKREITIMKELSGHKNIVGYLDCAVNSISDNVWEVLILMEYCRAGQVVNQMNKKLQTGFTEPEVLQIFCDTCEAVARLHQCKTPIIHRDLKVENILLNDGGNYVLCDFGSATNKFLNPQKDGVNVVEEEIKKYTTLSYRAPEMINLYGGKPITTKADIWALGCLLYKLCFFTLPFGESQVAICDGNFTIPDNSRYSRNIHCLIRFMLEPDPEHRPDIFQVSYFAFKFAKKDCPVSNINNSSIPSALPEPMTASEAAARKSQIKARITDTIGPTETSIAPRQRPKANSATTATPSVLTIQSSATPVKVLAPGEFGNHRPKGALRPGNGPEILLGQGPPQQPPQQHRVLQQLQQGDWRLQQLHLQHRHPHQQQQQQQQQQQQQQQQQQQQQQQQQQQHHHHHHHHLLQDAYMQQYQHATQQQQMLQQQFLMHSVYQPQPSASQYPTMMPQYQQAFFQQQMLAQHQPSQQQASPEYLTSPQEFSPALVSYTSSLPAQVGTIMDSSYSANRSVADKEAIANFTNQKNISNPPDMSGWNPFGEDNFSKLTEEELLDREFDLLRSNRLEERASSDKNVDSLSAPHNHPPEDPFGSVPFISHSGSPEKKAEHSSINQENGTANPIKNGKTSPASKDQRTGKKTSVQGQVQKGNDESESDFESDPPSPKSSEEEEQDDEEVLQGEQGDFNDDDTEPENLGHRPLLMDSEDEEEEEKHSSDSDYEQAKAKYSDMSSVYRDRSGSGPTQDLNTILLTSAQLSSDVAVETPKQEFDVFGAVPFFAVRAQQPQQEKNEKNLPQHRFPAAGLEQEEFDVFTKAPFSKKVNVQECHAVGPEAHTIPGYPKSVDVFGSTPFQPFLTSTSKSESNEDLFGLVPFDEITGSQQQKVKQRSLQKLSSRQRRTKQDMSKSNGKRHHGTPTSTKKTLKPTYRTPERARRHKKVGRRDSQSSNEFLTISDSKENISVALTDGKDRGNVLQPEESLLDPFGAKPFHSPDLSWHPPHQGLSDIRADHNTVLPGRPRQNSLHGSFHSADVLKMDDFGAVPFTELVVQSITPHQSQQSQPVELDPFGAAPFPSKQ
Chain of Dual specificity mitogen-activated protein kinase kinase 1 (Homo sapiens) (Q02750 whole entry): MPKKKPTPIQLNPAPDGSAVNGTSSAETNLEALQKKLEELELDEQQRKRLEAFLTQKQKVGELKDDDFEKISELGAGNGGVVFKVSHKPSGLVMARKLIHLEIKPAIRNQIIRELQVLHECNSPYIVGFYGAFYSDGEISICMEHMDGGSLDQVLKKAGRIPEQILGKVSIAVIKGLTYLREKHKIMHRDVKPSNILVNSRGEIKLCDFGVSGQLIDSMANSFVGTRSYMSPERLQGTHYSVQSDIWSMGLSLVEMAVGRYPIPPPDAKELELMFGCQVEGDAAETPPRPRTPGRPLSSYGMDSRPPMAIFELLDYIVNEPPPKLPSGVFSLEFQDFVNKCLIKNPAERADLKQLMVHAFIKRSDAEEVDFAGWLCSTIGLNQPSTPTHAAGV

| SMILES | residual activity [5] [%] | residual activity [6] [%] | residual activity [7] [%] | residual activity [8] [%] | residual activity [9] [%] | residual activity [10] [%] | residual activity [11] [%] | residual activity [12] [%] | residual activity [13] [%] | residual activity [14] [%] | residual activity [15] [%] | residual activity [16] [%] | residual activity [17] [%] | residual activity [18] [%] | residual activity [19] [%] | further results |
| --- | --- | --- | --- | --- | --- | --- | --- | --- | --- | --- | --- | --- | --- | --- | --- | --- |
| COc1cc(-c2cn([C@H]3CCc4c(F)cccc4N(CC(F)(F)F)C3=O)nn2)ccc1-n1cnc(C)c1 | 83 | 100 | 100 | 83 | 99 | 80 | 100 | 93 | 100 | 100 | 100 | 100 | 100 | 100 | 100 | Ki [1]: 808 nM; Ki ([2]; read-out: Ki): 191 nM; Ki ([2]; read-out: pKi (converted)): 200 nM; Ki (Histamine H2 receptor): 975 nM; IC50 [3]: 536 nM (active); IC50 [4]: 13 nM (active); inhibition [20]: -8.76%; inhibition [21]: 14.1%; inhibition [22]: 19.9%; inhibition [23]: -5.61%; inhibition [24]: 8.88%; inhibition [25]: 14.4%; inhibition [26]: 15.8%; inhibition [27]: 2.11% |
| COc1cc(-c2cn([C@H]3CCc4ccccc4N(CC(F)(F)F)C3=O)nn2)ccc1-n1ccc(C)n1 | 70 | 100 | 88 | 95 | 79 | 100 | 68 | 71 | 100 | 93 | 100 | 100 | 95 | 93 | 81 | Ki (D(4) dopamine receptor): 4950 nM; Ki [28]: 1390 nM; Ki [29]: 10000 nM; Ki [30]: 5070 nM; pKi [30]: 5.36; inhibition [31]: 11.3% |
